According to the supplement of paper PMC10307832:

Experiments:
Assay in all cases: relative viability (nuclei count vs DMSO), 5 days (fraction); higher = more cells survive
[1] = test system: HCC-366
Procedure, shortened: (§1)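 After 5 days of treatment, lung cancer cells in 1536-well plates were fixed and stained in a single step (final 0.05% Triton X-100, 1% formaldehyde, 1 ug/ml Hoechst) and their nuclei counted on 4× images. Treatment had been applied by pin tool the day after seeding as one drug alone or as a fixed anchor-drug dose with five library-drug doses (not always all listed) in √10 steps. Relative viability is the nuclei count of treated wells divided by that of vehicle wells, and values are medians of duplicate plates.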

[2] = test system: NCI-H650
Procedure, shortened: as §1

[3] = test system: COR-L23
Procedure, shortened: as §1

[4] = test system: 201T
Procedure, shortened: as §1

[5] = test system: NCI-H2085
Procedure, shortened: as §1

[6] = test system: LU99A
Procedure, shortened: as §1

[7] = test system: NCI-H23
Procedure, shortened: as §1

[8] = test system: H3255
Procedure, shortened: as §1

[9] = test system: SK-LU-1
Procedure, shortened: as §1

[10] = test system: NCI-H1650
Procedure, shortened: as §1

[11] = test system: NCI-H1651
Procedure, shortened: as §1

[12] = test system: NCI-H358
Procedure, shortened: as §1

[13] = test system: NCI-H3122
Procedure, shortened: as §1

[14] = test system: NCI-H1755
Procedure, shortened: as §1

[15] = test system: HCC-78
Procedure, shortened: as §1

[16] = test system: NCI-H2087
Procedure, shortened: as §1

[17] = test system: NCI-H460
Procedure, shortened: as §1

[18] = test system: NCI-H1793
Procedure, shortened: as §1

[19] = test system: PC-3 [JPC-3]
Procedure, shortened: as §1

[20] = test system: NCI-H522
Procedure, shortened: as §1

[21] = test system: HARA
Procedure, shortened: as §1

[22] = test system: NCI-H322M
Procedure, shortened: as §1

Cc1cn(-c2cc(NC(=O)c3ccc(C)c(Nc4nccc(-c5cccnc5)n4)c3)cc(C(F)(F)F)c2)cn1 [Nilotinib] + CC(=O)c1c(C)c2cnc(Nc3ccc(N4CCNCC4)cn3)nc2n(C2CCCC2)c1=O [Palbociclib] (partner 0.5 µM)
relative viability ([1]; first compound 0.001 µM): 0.244
relative viability ([1]; first compound 0.003162 µM): 0.379
relative viability ([1]; first compound 0.01 µM): 0.396
relative viability ([1]; first compound 0.03162 µM): 0.36
relative viability ([1]; first compound 0.1 µM): 0.303
relative viability ([2]; first compound 0.001 µM): 0.335
relative viability ([2]; first compound 0.01 µM): 0.336
relative viability ([2]; first compound 0.03162 µM): 0.305
relative viability ([2]; first compound 0.1 µM): 0.333
relative viability ([3]; first compound 0.001 µM): 0.288
relative viability ([3]; first compound 0.003162 µM): 0.301
relative viability ([3]; first compound 0.01 µM): 0.317
relative viability ([3]; first compound 0.03162 µM): 0.268
relative viability ([3]; first compound 0.1 µM): 0.223
relative viability ([4]; first compound 0.001 µM): 0.326
relative viability ([4]; first compound 0.003162 µM): 0.371
relative viability ([4]; first compound 0.01 µM): 0.363
relative viability ([4]; first compound 0.03162 µM): 0.363
relative viability ([4]; first compound 0.1 µM): 0.351
relative viability ([5]; first compound 0.001 µM): 0.525
relative viability ([5]; first compound 0.003162 µM): 0.489
relative viability ([5]; first compound 0.01 µM): 0.536
relative viability ([5]; first compound 0.03162 µM): 0.498
relative viability ([5]; first compound 0.1 µM): 0.393
relative viability ([6]; first compound 0.001 µM): 0.408
relative viability ([6]; first compound 0.003162 µM): 0.377
relative viability ([6]; first compound 0.01 µM): 0.402
relative viability ([6]; first compound 0.03162 µM): 0.44
relative viability ([6]; first compound 0.1 µM): 0.314
relative viability ([7]; first compound 0.001 µM): 0.494
relative viability ([7]; first compound 0.003162 µM): 0.52
relative viability ([7]; first compound 0.01 µM): 0.512
relative viability ([7]; first compound 0.03162 µM): 0.443
relative viability ([7]; first compound 0.1 µM): 0.404
relative viability ([8]; first compound 0.001 µM): 0.317
relative viability ([8]; first compound 0.003162 µM): 0.286
relative viability ([8]; first compound 0.01 µM): 0.313
relative viability ([8]; first compound 0.03162 µM): 0.308
relative viability ([8]; first compound 0.1 µM): 0.287
relative viability ([9]; first compound 0.001 µM): 0.355
relative viability ([9]; first compound 0.003162 µM): 0.334
relative viability ([9]; first compound 0.01 µM): 0.405
relative viability ([9]; first compound 0.03162 µM): 0.311
relative viability ([9]; first compound 0.1 µM): 0.335
relative viability ([10]; first compound 0.001 µM): 0.329
relative viability ([10]; first compound 0.003162 µM): 0.402
relative viability ([10]; first compound 0.01 µM): 0.324
relative viability ([10]; first compound 0.03162 µM): 0.309
relative viability ([10]; first compound 0.1 µM): 0.298
relative viability ([11]; first compound 0.001 µM): 0.555
relative viability ([11]; first compound 0.003162 µM): 0.601
relative viability ([11]; first compound 0.01 µM): 0.616
relative viability ([11]; first compound 0.03162 µM): 0.448
relative viability ([11]; first compound 0.1 µM): 0.562
relative viability ([12]; first compound 0.001 µM): 0.131
relative viability ([12]; first compound 0.003162 µM): 0.131
relative viability ([12]; first compound 0.01 µM): 0.148
relative viability ([12]; first compound 0.03162 µM): 0.124
relative viability ([12]; first compound 0.1 µM): 0.127
relative viability ([13]; first compound 0.001 µM): 0.0877
relative viability ([13]; first compound 0.003162 µM): 0.191
relative viability ([13]; first compound 0.01 µM): 0.243
relative viability ([13]; first compound 0.03162 µM): 0.198
relative viability ([13]; first compound 0.1 µM): 0.175
relative viability ([14]; first compound 0.001 µM): 0.451
relative viability ([14]; first compound 0.003162 µM): 0.453
relative viability ([14]; first compound 0.01 µM): 0.436
relative viability ([14]; first compound 0.03162 µM): 0.468
relative viability ([14]; first compound 0.1 µM): 0.368
relative viability ([15]; first compound 0.001 µM): 0.476
relative viability ([15]; first compound 0.003162 µM): 0.509
relative viability ([15]; first compound 0.01 µM): 0.532
relative viability ([15]; first compound 0.03162 µM): 0.468
relative viability ([15]; first compound 0.1 µM): 0.524
relative viability ([16]; first compound 0.001 µM): 0.219
relative viability ([16]; first compound 0.003162 µM): 0.204
relative viability ([16]; first compound 0.01 µM): 0.213
relative viability ([16]; first compound 0.03162 µM): 0.187
relative viability ([16]; first compound 0.1 µM): 0.201
relative viability ([17]; first compound 0.001 µM): 0.101
relative viability ([17]; first compound 0.003162 µM): 0.0788
relative viability ([17]; first compound 0.01 µM): 0.144
relative viability ([17]; first compound 0.03162 µM): 0.148
relative viability ([17]; first compound 0.1 µM): 0.134
relative viability ([18]; first compound 0.001 µM): 0.332
relative viability ([18]; first compound 0.003162 µM): 0.352
relative viability ([18]; first compound 0.01 µM): 0.307
relative viability ([18]; first compound 0.03162 µM): 0.281
relative viability ([18]; first compound 0.1 µM): 0.3
relative viability ([19]; first compound 0.001 µM): 0.526
relative viability ([19]; first compound 0.01 µM): 0.542
relative viability ([19]; first compound 0.03162 µM): 0.566
relative viability ([19]; first compound 0.1 µM): 0.518
relative viability ([20]; first compound 0.03162 µM): 0.819
relative viability ([20]; first compound 0.1 µM): 0.805
relative viability ([21]; first compound 0.001 µM): 0.287
relative viability ([21]; first compound 0.003162 µM): 0.219
relative viability ([21]; first compound 0.01 µM): 0.246
relative viability ([21]; first compound 0.03162 µM): 0.251
relative viability ([21]; first compound 0.1 µM): 0.225
relative viability ([22]; first compound 0.001 µM): 0.512
relative viability ([22]; first compound 0.003162 µM): 0.461
relative viability ([22]; first compound 0.01 µM): 0.534
relative viability ([22]; first compound 0.03162 µM): 0.527
relative viability ([22]; first compound 0.1 µM): 0.602
